From PMC12587545, “Noncytotoxic polymyxin derivatives enhance antibiotic action against multidrug-resistant Gram-negative bacteria” (Antimicrobial Agents and Chemotherapy, 2025)
Several values for one entry are separate records, joined by “and”; a condition that tells them apart may be missing. Equal values may be shown once. Read-outs that look alike come from different tables or passages of the source.

Legend:
P. aeruginosa = test: Checkerboard assay (antibiotic potentiation); format: cell-based, Pseudomonas aeruginosa
A. baumannii = test: Checkerboard assay (antibiotic potentiation); format: cell-based, Acinetobacter baumannii; settings: for MICantibiotic: antibiotic alone
[1] = P. aeruginosa 262-101856, antibiotic + compound 1
[2] = P. aeruginosa 264-105354, antibiotic + compound 1
[3] = P. aeruginosa PAO1, 0% FBS, zoliflodacin + compound 1
[4] = P. aeruginosa PAO1, [Mg2+] 0.4–0.5 mM, zoliflodacin + compound 1
[5] = P. aeruginosa PAO1, antibiotic + compound 1
[6] = A. baumannii 110193, antibiotic + compound 1

C[C@@H]1CN2c3c(cc4c(N5C(=O)OC[C@@H]5C)noc4c3F)CC3(C(=O)NC(=O)NC3=O)[C@H]2[C@H](C)O1 [Zoliflodacin]
Interpretation (P. aeruginosa; P. aeruginosa 259-96916, antibiotic + compound 1): Synergy (FIC indices of ≤0.5 is synergistic) | MICantibiotic + compound (P. aeruginosa; P. aeruginosa 259-96916, antibiotic MIC with 8 µg/mL (5 µM) compound 1): 0.125 µg/mL | MICantibiotic (P. aeruginosa; P. aeruginosa 259-96916, antibiotic alone): 128 µg/mL | Potentiation (P. aeruginosa; P. aeruginosa 259-96916, of antibiotic by 8 µg/mL (5 µM) compound 1): ≥1024-fold | FIC index (P. aeruginosa; [1]): x < 0.078 | Interpretation (P. aeruginosa; [1]): Synergy (FIC indices of ≤0.5 is synergistic) | MICantibiotic + compound (P. aeruginosa; P. aeruginosa 262-101856, antibiotic MIC with 8 µg/mL (5 µM) compound 1): 2 µg/mL | MICantibiotic (P. aeruginosa; P. aeruginosa 262-101856, antibiotic alone): >128 µg/mL | Potentiation (P. aeruginosa; P. aeruginosa 262-101856, of antibiotic by 8 µg/mL (5 µM) compound 1): ≥128-fold | FIC index (P. aeruginosa; [2]): x < 0.066 | Interpretation (P. aeruginosa; [2]): Synergy (FIC indices of ≤0.5 is synergistic) | MICantibiotic + compound (P. aeruginosa; P. aeruginosa 264-105354, antibiotic MIC with 8 µg/mL (5 µM) compound 1): 0.5 µg/mL | MICantibiotic (P. aeruginosa; P. aeruginosa 264-105354, antibiotic alone): >128 µg/mL | Potentiation (P. aeruginosa; P. aeruginosa 264-105354, of antibiotic by 8 µg/mL (5 µM) compound 1): ≥512-fold | MICantibiotic + compound (P. aeruginosa; P. aeruginosa 101243 (colistin-resistant), antibiotic MIC with 8 µg/mL (5 µM) compound 1): >128 µg/mL | MICantibiotic (P. aeruginosa; P. aeruginosa 101243 (colistin-resistant), antibiotic alone): >128 µg/mL | MICantibiotic + compound (P. aeruginosa; P. aeruginosa 114228 (colistin-resistant), antibiotic MIC with 8 µg/mL (5 µM) compound 1): >128 µg/mL | MICantibiotic (P. aeruginosa; P. aeruginosa 114228 (colistin-resistant), antibiotic alone): >128 µg/mL | Potentiation (P. aeruginosa; P. aeruginosa PAO1, 0% FBS, of zoliflodacin by 8 µg/mL (5 µM) compound 1): ≥32-fold | FIC index (P. aeruginosa; [3]): x < 0.125 | Interpretation (P. aeruginosa; [3]): Synergy (FIC indices of ≤0.5 is synergistic) | MICantibiotic + compound (P. aeruginosa; P. aeruginosa PAO1, 0% FBS, zoliflodacin MIC with 8 µg/mL (5 µM) compound 1): 8 µg/mL | MICantibiotic (P. aeruginosa; P. aeruginosa PAO1, 0% FBS, zoliflodacin alone): >128 µg/mL | Potentiation (P. aeruginosa; P. aeruginosa PAO1, 10% FBS, of zoliflodacin by 8 µg/mL (5 µM) compound 1): 64 fold | Interpretation (P. aeruginosa; P. aeruginosa PAO1, 10% FBS, zoliflodacin + compound 1): Synergy (FIC indices of ≤0.5 is synergistic) | MICantibiotic + compound (P. aeruginosa; P. aeruginosa PAO1, 10% FBS, zoliflodacin MIC with 8 µg/mL (5 µM) compound 1): 8 µg/mL | MICantibiotic (P. aeruginosa; P. aeruginosa PAO1, 10% FBS, zoliflodacin alone): 512 µg/mL | Potentiation (P. aeruginosa; P. aeruginosa PAO1, 25% FBS, of zoliflodacin by 8 µg/mL (5 µM) compound 1): 1 fold | Interpretation (P. aeruginosa; P. aeruginosa PAO1, 25% FBS, zoliflodacin + compound 1): Additive (0.5 < × ≤ 4 is additive) | MICantibiotic + compound (P. aeruginosa; P. aeruginosa PAO1, 25% FBS, zoliflodacin MIC with 8 µg/mL (5 µM) compound 1): 1024 µg/mL | MICantibiotic (P. aeruginosa; P. aeruginosa PAO1, 25% FBS, zoliflodacin alone): 1024 µg/mL | Potentiation (P. aeruginosa; P. aeruginosa PAO1, 50% FBS, of zoliflodacin by 8 µg/mL (5 µM) compound 1): 1 fold | Interpretation (P. aeruginosa; P. aeruginosa PAO1, 50% FBS, zoliflodacin + compound 1): Additive (0.5 < × ≤ 4 is additive) | MICantibiotic + compound (P. aeruginosa; P. aeruginosa PAO1, 50% FBS, zoliflodacin MIC with 8 µg/mL (5 µM) compound 1): 1024 µg/mL | MICantibiotic (P. aeruginosa; P. aeruginosa PAO1, 50% FBS, zoliflodacin alone): 1024 µg/mL | Potentiation (P. aeruginosa; P. aeruginosa PAO1, [Mg2+] 25 mM, of zoliflodacin by 8 µg/mL (5 µM) compound 1): 1 fold | Interpretation (P. aeruginosa; P. aeruginosa PAO1, [Mg2+] 25 mM, zoliflodacin + compound 1): Additive (0.5 < × ≤ 4 is additive) | MICantibiotic + compound (P. aeruginosa; P. aeruginosa PAO1, [Mg2+] 25 mM, zoliflodacin MIC with 8 µg/mL (5 µM) compound 1): 1024 µg/mL | MICantibiotic (P. aeruginosa; P. aeruginosa PAO1, [Mg2+] 25 mM, zoliflodacin alone): 1024 µg/mL | Potentiation (P. aeruginosa; P. aeruginosa PAO1, [Mg2+] 0.4–0.5 mM, of zoliflodacin by 8 µg/mL (5 µM) compound 1): ≥32-fold | FIC index (P. aeruginosa; [4]): x < 0.125 | Interpretation (P. aeruginosa; [4]): Synergy (FIC indices of ≤0.5 is synergistic) | MICantibiotic + compound (P. aeruginosa; P. aeruginosa PAO1, [Mg2+] 0.4–0.5 mM, zoliflodacin MIC with 8 µg/mL (5 µM) compound 1): 8 µg/mL | MICantibiotic (P. aeruginosa; P. aeruginosa PAO1, [Mg2+] 0.4–0.5 mM, zoliflodacin alone): >128 µg/mL | FIC index (P. aeruginosa; [5]): x < 0.125 | Interpretation (P. aeruginosa; [5]): Synergy (FIC indices of ≤0.5 is synergistic) | Interpretation (P. aeruginosa; P. aeruginosa PAO1, antibiotic + compound 3): Additive (0.5 < × ≤ 4 is additive) | MICantibiotic + compound (P. aeruginosa; P. aeruginosa PAO1, antibiotic MIC with 8 µg/mL (5 µM) compound 1): 8 µg/mL | MICantibiotic + compound (P. aeruginosa; P. aeruginosa PAO1, antibiotic MIC with 8 µg/mL (5 µM) compound 3): 128 µg/mL | MICantibiotic (P. aeruginosa; P. aeruginosa PAO1, antibiotic alone): 128 µg/mL and >128 µg/mL | Potentiation (P. aeruginosa; P. aeruginosa PAO1, of antibiotic by 8 µg/mL (5 µM) compound 1): ≥32-fold | Potentiation (P. aeruginosa; P. aeruginosa PAO1, of antibiotic by 8 µg/mL (5 µM) compound 3): 1 fold | MICantibiotic + compound (A. baumannii): 0.031 µg/mL | Potentiation (A. baumannii): ≥128-fold | Interpretation (A. baumannii; A. baumannii 92247 (colistin-resistant), antibiotic + compound 1): Synergy (FIC indices of ≤0.5 is synergistic) | MICantibiotic + compound (A. baumannii; A. baumannii 92247 (colistin-resistant), antibiotic MIC with 4 µg/mL (2 µM) compound 1): 0.25 µg/mL | MICantibiotic (A. baumannii; A. baumannii 92247 (colistin-resistant)): 4 µg/mL | Potentiation (A. baumannii; A. baumannii 92247 (colistin-resistant), of antibiotic by 4 µg/mL (2 µM) compound 1): ≥16-fold | FIC index (A. baumannii; [6]): 0.156 | Interpretation (A. baumannii; [6]): Synergy (FIC indices of ≤0.5 is synergistic) | MICantibiotic + compound (A. baumannii; A. baumannii 110193, antibiotic MIC with 4 µg/mL (2 µM) compound 1): 8 µg/mL | MICantibiotic (A. baumannii; A. baumannii 110193): 256 µg/mL | Potentiation (A. baumannii; A. baumannii 110193, of antibiotic by 4 µg/mL (2 µM) compound 1): 32 fold | Interpretation (A. baumannii; A. baumannii AB027, antibiotic + compound 1): Synergy (FIC indices of ≤0.5 is synergistic) | MICantibiotic + compound (A. baumannii; A. baumannii AB027, antibiotic MIC with 4 µg/mL (2 µM) compound 1): 0.25 µg/mL | MICantibiotic (A. baumannii; A. baumannii AB027): 16 µg/mL | Potentiation (A. baumannii; A. baumannii AB027, of antibiotic by 4 µg/mL (2 µM) compound 1): 64 fold
